Assays:
[1] = tested on: Canis familiaris; test: Peak effect after 8 hours systolic blood pressure after 3 days of oral administration in renal hypertensive dogs at dose 0.5 mg/kg; assay type: functional, Canis lupus familiaris, Artery
[2] = tested on: Canis familiaris; test: Systolic blood pressure after 0 hours of oral administration in renal hypertensive dogs at dose 1 mg/kg; assay type: functional, Canis lupus familiaris
[3] = tested on: Canis familiaris; test: Systolic blood pressure after 8 hours of oral administration in renal hypertensive dogs at dose 0.25 mg/kg; assay type: functional, Canis lupus familiaris
[4] = tested on: Canis familiaris; test: Heart rate after 2 hours of oral administration in renal hypertensive dogs at dose 1 mg/kg; assay type: functional, Canis lupus familiaris
[5] = tested on: Canis familiaris; test: Systolic blood pressure after 2 hr of oral administration in renal hypertensive dogs at dose 2 mg/kg; assay type: functional, Canis lupus familiaris
[6] = tested on: Canis familiaris; test: Heart rate after 8 hours of oral administration in renal hypertensive dogs at dose 0.25 mg/kg; assay type: functional, Canis lupus familiaris
[7] = tested on: Canis familiaris; test: Peak effect after 8 hours on systolic blood pressure after 2 days of oral administration in renal hypertensive dogs at dose 0.5 mg/kg; assay type: functional, Canis lupus familiaris, Artery
[8] = tested on: Canis familiaris; test: Heart rate after 0 hours of oral administration in renal hypertensive dogs at dose 1 mg/kg; assay type: functional, Canis lupus familiaris
[9] = tested on: Canis familiaris; test: Systolic blood pressure after 6 hours of oral administration in renal hypertensive dogs at dose 1 mg/kg; assay type: functional, Canis lupus familiaris
[10] = tested on: Canis familiaris; test: Systolic blood pressure after 2 hours of oral administration in renal hypertensive dogs at dose 1 mg/kg; assay type: functional, Canis lupus familiaris
[11] = tested on: Canis familiaris; test: Peak effect after 8 hours on heart rate after 2 day of oral administration in renal hypertensive dogs at dose 0.5 mg/kg; assay type: functional, Canis lupus familiaris
[12] = tested on: Canis familiaris; test: Heart rate after 2 hours of oral administration in renal hypertensive dogs at dose 0.25 mg/kg; assay type: functional, Canis lupus familiaris
[13] = tested on: Canis familiaris; test: Systolic blood pressure after 4 hours of oral administration in renal hypertensive dogs at dose 1 mg/kg (mean +/- SE for 3 animals /dose); assay type: functional, Canis lupus familiaris
[14] = tested on: Canis familiaris; test: Systolic blood pressure after 4 hours of oral administration in renal hypertensive dogs at dose 0.25 mg/kg; assay type: functional, Canis lupus familiaris
[15] = tested on: Canis familiaris; test: Heart rate after 8 hours of oral administration in renal hypertensive dogs at dose 2 mg/kg; assay type: functional, Canis lupus familiaris
[16] = tested on: Canis familiaris; test: Peak effect after 8 hours on heart rate after 1 days of oral administration in renal hypertensive dogs at dose 0.5 mg/kg; assay type: functional, Canis lupus familiaris
[17] = tested on: Canis familiaris; test: Peak effect after 8 hours on systolic blood pressure after 1 day of oral administration in renal hypertensive dogs at dose 0.5 mg/kg; assay type: functional, Canis lupus familiaris, Artery
[18] = tested on: Canis familiaris; test: Heart rate after 8 hours of oral administration in renal hypertensive dogs at dose 1 mg/kg; assay type: functional, Canis lupus familiaris
[19] = tested on: Canis familiaris; test: Systolic blood pressure after 4 hours of oral administration in renal hypertensive dogs at dose 2 mg/kg; assay type: functional, Canis lupus familiaris
[20] = tested on: Canis familiaris; test: Systolic blood pressure after 8 hours of oral administration in renal hypertensive dogs at dose 2 mg/kg; assay type: functional, Canis lupus familiaris
[21] = tested on: Canis familiaris; test: Peak effect after 8 hours on heart rate after 7 days of oral administration in renal hypertensive dogs at dose 0.5 mg/kg; assay type: functional, Canis lupus familiaris
[22] = tested on: Canis familiaris; test: Peak effect after 8 hours on systolic blood pressure after 7 days of oral administration in renal hypertensive dogs at dose 0.5 mg/kg; assay type: functional, Canis lupus familiaris, Artery
[23] = tested on: Canis familiaris; test: Heart rate after 2 hours of oral administration in renal hypertensive dogs at dose 2 mg/kg; assay type: functional, Canis lupus familiaris
[24] = tested on: Canis familiaris; test: Heart rate after 0 hours of oral administration in renal hypertensive dogs at dose 2 mg/kg; assay type: functional, Canis lupus familiaris
[25] = tested on: Canis familiaris; test: Systolic blood pressure after 8 hours of oral administration in renal hypertensive dogs at dose 1 mg/kg; assay type: functional, Canis lupus familiaris
[26] = tested on: Canis familiaris; test: Heart rate after 6 hours of oral administration in renal hypertensive dogs at dose 0.25 mg/kg; assay type: functional, Canis lupus familiaris
[27] = tested on: Canis familiaris; test: Heart rate after 4 hours of oral administration in renal hypertensive dogs at dose 2 mg/kg; assay type: functional, Canis lupus familiaris
[28] = tested on: Canis familiaris; test: Heart rate after 4 hours of oral administration in renal hypertensive dogs at dose 1 mg/kg; assay type: functional, Canis lupus familiaris
[29] = target: T1, Adrenergic receptor alpha-1 (Rattus norvegicus, UniProt P15823+P23944+P43140); test: Ability to displace [3H]prazosin from postsynaptic alpha-1 adrenergic receptor of rat in vitro.; assay type: protein assay
T1 sequence (P15823 whole entry): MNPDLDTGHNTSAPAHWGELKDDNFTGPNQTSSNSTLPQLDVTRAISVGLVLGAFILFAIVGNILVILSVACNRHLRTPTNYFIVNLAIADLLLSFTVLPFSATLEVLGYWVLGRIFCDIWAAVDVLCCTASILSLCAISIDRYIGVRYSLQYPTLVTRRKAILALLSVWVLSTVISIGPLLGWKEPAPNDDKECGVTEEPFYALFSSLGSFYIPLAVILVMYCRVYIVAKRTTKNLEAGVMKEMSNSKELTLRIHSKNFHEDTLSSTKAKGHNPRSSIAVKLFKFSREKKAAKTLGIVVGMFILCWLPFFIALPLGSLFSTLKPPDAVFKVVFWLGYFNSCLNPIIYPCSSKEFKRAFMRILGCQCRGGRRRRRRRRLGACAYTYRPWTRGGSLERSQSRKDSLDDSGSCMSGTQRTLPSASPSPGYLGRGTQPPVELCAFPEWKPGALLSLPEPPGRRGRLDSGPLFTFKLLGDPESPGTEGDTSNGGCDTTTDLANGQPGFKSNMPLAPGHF
T1 sequence (P23944 whole entry): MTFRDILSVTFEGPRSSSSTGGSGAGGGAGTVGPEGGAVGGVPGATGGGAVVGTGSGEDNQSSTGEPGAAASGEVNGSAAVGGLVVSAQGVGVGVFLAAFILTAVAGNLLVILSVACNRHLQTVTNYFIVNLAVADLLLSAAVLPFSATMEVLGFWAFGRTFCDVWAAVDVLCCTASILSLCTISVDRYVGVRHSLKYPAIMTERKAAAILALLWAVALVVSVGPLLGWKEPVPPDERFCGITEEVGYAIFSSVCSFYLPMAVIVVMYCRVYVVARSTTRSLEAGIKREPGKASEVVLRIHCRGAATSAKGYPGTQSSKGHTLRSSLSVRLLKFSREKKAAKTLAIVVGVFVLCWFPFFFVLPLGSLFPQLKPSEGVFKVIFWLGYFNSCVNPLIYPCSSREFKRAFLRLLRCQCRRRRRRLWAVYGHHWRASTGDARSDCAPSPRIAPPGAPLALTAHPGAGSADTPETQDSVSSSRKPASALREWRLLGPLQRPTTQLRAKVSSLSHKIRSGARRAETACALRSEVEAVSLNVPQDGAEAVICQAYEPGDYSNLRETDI
T1 sequence (P43140 whole entry): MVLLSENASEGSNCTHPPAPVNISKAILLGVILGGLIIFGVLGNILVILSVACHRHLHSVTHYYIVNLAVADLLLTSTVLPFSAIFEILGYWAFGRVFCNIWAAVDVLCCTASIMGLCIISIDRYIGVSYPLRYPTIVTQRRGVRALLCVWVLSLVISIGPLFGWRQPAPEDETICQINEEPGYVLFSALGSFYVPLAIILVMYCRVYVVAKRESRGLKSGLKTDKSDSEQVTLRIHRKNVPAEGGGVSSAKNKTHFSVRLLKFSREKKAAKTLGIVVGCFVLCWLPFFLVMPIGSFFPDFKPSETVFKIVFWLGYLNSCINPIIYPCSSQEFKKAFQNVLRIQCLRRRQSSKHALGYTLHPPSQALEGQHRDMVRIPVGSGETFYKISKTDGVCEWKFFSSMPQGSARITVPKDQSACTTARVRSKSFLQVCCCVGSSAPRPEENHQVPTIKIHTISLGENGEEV

[30] = tested on: Canis familiaris; test: Systolic blood pressure after 0 hours of oral administration in renal hypertensive dogs at dose 2 mg/kg; assay type: functional, Canis lupus familiaris
[31] = tested on: Canis familiaris; test: Peak effect after 8 hours on heart rate after 3 days of oral administration in renal hypertensive dogs at dose 0.5 mg/kg; assay type: functional, Canis lupus familiaris
[32] = tested on: Canis familiaris; test: Systolic blood pressure after 6 hours of oral administration in renal hypertensive dogs at dose 2 mg/kg; assay type: functional, Canis lupus familiaris
[33] = tested on: Canis familiaris; test: Systolic blood pressure after 2 hours of oral administration in renal hypertensive dogs at dose 0.25 mg/kg; assay type: functional, Canis lupus familiaris
[34] = tested on: Canis familiaris; test: Systolic blood pressure after 0 hours of oral administration in renal hypertensive dogs at dose 0.25 mg/kg; assay type: functional, Canis lupus familiaris
[35] = tested on: Canis familiaris; test: Heart rate after 4 hours of oral administration in renal hypertensive dogs at dose 0.25 mg/kg; assay type: functional, Canis lupus familiaris
[36] = tested on: Canis familiaris; test: Heart rate after 0 hours of oral administration in renal hypertensive dogs at dose 0.25 mg/kg; assay type: functional, Canis lupus familiaris
[37] = tested on: Canis familiaris; test: Systolic blood pressure after 6 hours of oral administration in renal hypertensive dogs at dose 0.25 mg/kg; assay type: functional, Canis lupus familiaris
[38] = tested on: Rattus norvegicus; test: Antihypertensive activity on spontaneously hypertensive rats when administered orally at a dose 50 mg/kg.; assay type: functional; conditions: route oral
[39] = tested on: Canis familiaris; test: Heart rate after 6 hours of oral administration in renal hypertensive dogs at dose 1 mg/kg; assay type: functional, Canis lupus familiaris
[40] = tested on: Canis familiaris; test: Heart rate after 6 hours of oral administration in renal hypertensive dogs at dose 2 mg/kg; assay type: functional, Canis lupus familiaris

Question: With `Cl.Fc1ccc(-c2nn(Cc3ccccc3)c3c2CNCC3)cc1` as the molecule, how does the SBP [1] read?
Answer: 160 mmHg

Question: And the SBP [2]?
Answer: 200 mmHg

Question: What about the SBP [3] of the same molecule?
Answer: 190 mmHg

Question: What about the Heart rate [4] of the same molecule?
Answer: 109 beats min-1

Question: What about the SBP [5] of the same molecule?
Answer: 183 mmHg

Question: And the Heart rate [6]?
Answer: 109 beats min-1

Question: What about the SBP [7] of the same molecule?
Answer: 155 mmHg

Question: And the Heart rate [8]?
Answer: 107 beats min-1

Question: What about the SBP [9] of the same molecule?
Answer: 165 mmHg

Question: What about the SBP [10] of the same molecule?
Answer: 198 mmHg

Question: And the Heart rate [11]?
Answer: 95 beats min-1

Question: What about the Heart rate [12] of the same molecule?
Answer: 112 beats min-1

Question: What about the SBP [13] of the same molecule?
Answer: 172 mmHg

Question: And the SBP [14]?
Answer: 200 mmHg

Question: And the Heart rate [15]?
Answer: 90 beats min-1

Question: And the Heart rate [16]?
Answer: 100 beats min-1

Question: What about the SBP [17] of the same molecule?
Answer: 160 mmHg

Question: And the Heart rate [18]?
Answer: 93 beats min-1

Question: What about the SBP [19] of the same molecule?
Answer: 165 mmHg

Question: What about the SBP [20] of the same molecule?
Answer: 156 mmHg

Question: And the Heart rate [21]?
Answer: 95 beats min-1

Question: What about the SBP [22] of the same molecule?
Answer: 155 mmHg

Question: What about the Heart rate [23] of the same molecule?
Answer: 107 beats min-1

Question: And the Heart rate [24]?
Answer: 110 beats min-1

Question: What about the SBP [25] of the same molecule?
Answer: 165 mmHg

Question: And the Heart rate [26]?
Answer: 105 beats min-1

Question: And the Heart rate [27]?
Answer: 104 beats min-1

Question: What about the Heart rate [28] of the same molecule?
Answer: 105 beats min-1

Question: What about the Ki [29] of the same molecule?
Answer: 14.7 nM

Question: And the SBP [30]?
Answer: 203 mmHg

Question: And the Heart rate [31]?
Answer: 105 beats min-1

Question: And the SBP [32]?
Answer: 155 mmHg

Question: And the SBP [33]?
Answer: 202 mmHg

Question: And the SBP [34]?
Answer: 200 mmHg

Question: What about the Heart rate [35] of the same molecule?
Answer: 108 beats min-1

Question: And the Heart rate [36]?
Answer: 110 beats min-1

Question: And the SBP [37]?
Answer: 188 mmHg

Question: What about the Delta p [38] of the same molecule?
Answer: -31%

Question: And the Heart rate [39]?
Answer: 96 beats min-1

Question: What about the Heart rate [40] of the same molecule?
Answer: 97 beats min-1

Source: ChEMBL document CHEMBL1122903, “Synthesis, in vitro [3H]prazosin displacement, and in vivo activity of 3-aryl-4,5,6,7-tetrahydropyrazolo[4,3-c]pyridines, a new class of antihypertensive agents” (J Med Chem, 1985)
